Measured values: PMC10528299, “Targeting FAK/PYK2 with SJP1602 for Anti-Tumor Activity in Triple-Negative Breast Cancer” (Current Issues in Molecular Biology, 2023)

How the values were obtained:
[1] = target: T1, PYK2 (Homo sapiens, UniProt Q14289); experiment: ADP-Glo kinase assay PYK2; format: biochemical; conditions: mean ± SEM (n = 3)
T1 construct: purchased Promega V4083
Protocol: The kinase assays were performed and quantified according to the manufacturer’s instructions using the ADP-Glo™ Kinase Assay Kit for FAK (Promega, V1971), PYK2 (Promega, V4083) and InsR (Promega, V3901). Each kinase reaction mixture was prepared to contain the compounds of interest. After thorough pipetting, 25 μL of the mixture was added to each well and incubated for 1 h at room temperature. Subsequently, 25 μL of ADP-Glo reagent was added, followed by a 40 m incubation at room temperature. Next, 50 μL of the kinase detection reagent was added, and the mixture was incubated for an additional 30 m at room temperature. Luminescence was measured using the Tecan Spark 10M (Integration time: 1 s) (Männedorf, Switzerland).

[2] = target: T2, FAK [pY397] in HCC70 cells (Homo sapiens, UniProt Q05397); experiment: FAK [pY397] ELISA in HCC70 cells; format: cell-based; conditions: HCC70, 1 h treatment, mean ± SEM (n = 3); read-out: IC50 FAK phosphorylation (pY397 ELISA)
T2 construct: endogenous in cells; host or cells: HCC70
Protocol: (§1) TNBC cells were seeded into 60 mm dishes at a density of 1 × 10^6 cells/dish in 5 mL of culture media. After 24 h, cells were treated with concentrations ranging from 1 nM to 10 μM of SJP1602 for 1 h, and cell lysates were prepared to detect phospho-FAK levels. The FAK [pY397] enzyme-linked immunosorbent assay was performed according to the manufacturer’s instructions. The absorbance at 450 nm was measured to quantify the results.

[3] = Cytotoxicity on normal cell line HEK293T; format: cell-based; conditions: human, HEK293T cells (normal cell line); read-out: Cytotoxicity on Normal Cell Lines IC50
[4] = tested on: MDA-MB-231 cells; experiment: Colony formation assay; format: cell-based, human; conditions: 1 μM or 2 μM, 11 days
Protocol: MDA-MB-231 cells were seeded at 2.5 × 10^2 cells/well in 12-well plates. FAK inhibitors (SJP1602, VS-6063, GSK2256098) were added 24 h post seeding without changing the media. After 7 days, the cells were replaced with fresh media containing 10% FBS and the same initial concentration of the FAK inhibitor. After 11 days, the cells were fixed with 4% PFA for 10 m at room temperature and stained with 0.5% crystal violet dissolved in 25% methanol for 20 min at room temperature. The cells were then washed with distilled water, dried, and images of the entire plate were obtained.

[5] = Cytotoxicity on normal cell line Fa2N4; format: cell-based; conditions: human, Fa2N4 cells (normal cell line); read-out: Cytotoxicity on Normal Cell Lines IC50
[6] = target: T3, FAK [pY397] in MDA-MB-453 cells (Homo sapiens, UniProt Q05397); experiment: FAK [pY397] ELISA in MDA-MB-453 cells; format: cell-based; conditions: MDA-MB-453, 1 h treatment, mean ± SEM (n = 3); read-out: IC50 FAK phosphorylation (pY397 ELISA)
T3 construct: endogenous in cells; host or cells: MDA-MB-453
Protocol: as §1

[7] = Cytotoxicity on normal cell line FDF; format: cell-based; conditions: FDF cells (normal cell line); read-out: Cytotoxicity on Normal Cell Lines IC50
[8] = target: T4, FAK [pY397] in MDA-MB-231 cells (Homo sapiens, UniProt Q05397); experiment: FAK [pY397] ELISA in MDA-MB-231 cells; format: cell-based; conditions: MDA-MB-231, 1 h treatment, mean ± SEM (n = 3); read-out: IC50 FAK phosphorylation (pY397 ELISA)
T4 construct: endogenous in cells; host or cells: MDA-MB-231
Protocol: as §1

[9] = tested on: MDA-MB-231 cells; experiment: Transwell cell migration assay; format: cell-based, human; conditions: 5 µM, 16 h
Protocol: Cell migration capacity was analyzed using the transwell migration assay. The 24-well chambers (8 μm pore size) were obtained from Corning (Corning, NY, USA). Cells treated with vehicle or FAK inhibitors (SJP1602, VS-6063, GSK2256098) at a concentration of 5 μM were resuspended in serum-free media and 5 × 10^4 cells were added to the upper compartment of the transwell chambers. Fresh culture medium with 5% FBS was added to the lower compartment. After 16 h, cells on the upper side of the filter were removed using cotton swabs. The underside of the filter was fixed in 100% methanol, washed in PBS, and stained using crystal violet. Migrated cells were analyzed using a microscope (Nikon, TE2000). Image analysis was performed using the color analysis function in Adobe Photoshop 2021 (Version 22.4.2, Adobe (San Jose, CA, USA)). Quantitative data were obtained from color measurement records in Adobe Photoshop 2021.

[10] = tested on: MDA-MB-231, 4T1, and Hs578T cells; experiment: 3D cell invasion assay; format: cell-based; conditions: 1 µM, 72 h, compared to VS-6063 and GSK 2256098
Protocol: Cells were added to an ultra-low 96-well round-bottom plate at a density of 5 × 10^3 cells/well and cultured for 3 days to form spheroids. The medium was removed, and a mixture of neutralized Type I Collagen and Matrigel was added to the wells. After 1 h of incubation, compound concentrations (2×) in 100 μL of solution were added per well. The plate was then incubated for 72 h. Relative invasion was quantified based on the following formula using the microscope and imaging software ImageJ (Version 2.1.0/1.54e, National Institutes of Health, Bethesda, MD, USA):Relative invasion = (total area of compound treated group − spheroid area of compound treated group/(total area of control − spheroid area of control)(1)

[11] = tested on: MDA-MB-231 cells; experiment: 2D cell invasion assay (Boyden chamber, Matrigel); format: cell-based, human; conditions: 5 μM, 48 h, Matrigel-coated Boyden chamber
Protocol: Cell invasion capacity was analyzed using the Boyden chamber assay. The 24-well Boyden chambers with Matrigel-coated filters (8 μm pore size) were obtained from Becton-Dickinson (San Diego, CA, USA). Cells treated with vehicle or FAK inhibitors (SJP1602, VS-6063, GSK2256098) at a concentration of 5 μM were resuspended in serum-free media and 5 × 10^5 cells were added to the Matrigel-coated upper compartment of the invasion chambers. Fresh culture medium with 5% FBS was added to the lower compartment. After 48 h, cells on the upper side of the filter were removed using cotton swabs. The underside of the filter was fixed in 100% methanol, washed in PBS, and stained using crystal violet. Cells that invaded the Matrigel were analyzed using a microscope (Nikon, TE2000). Image analysis was performed using the color analysis function in Adobe Photoshop 2021 (Version 22.4.2, Adobe, Adobe (San Jose, CA, USA)). Quantitative data were obtained from color measurement records in Adobe Photoshop 2021.

[12] = tested on: BT-549 xenograft; experiment: BT-549 xenograft mouse model
Protocol: Upon establishment of tumors, with an average tumor volume reaching approximately 100 mm^3, mice were grouped and subjected to daily oral dosing. […] The duration of drug administration was defined for 2 weeks based on the growth rate of the vehicle group of each xenografted tumor. The tumor volume was measured three times a week for potency measurement, and the body weight of mice was also measured three times a week for toxicity evaluation in vivo.

[13] = Cytotoxicity on normal cell line CCD-18Co; format: cell-based; conditions: human, CCD-18Co cells (normal cell line); read-out: Cytotoxicity on Normal Cell Lines IC50

T1 sequence (Q14289 whole entry): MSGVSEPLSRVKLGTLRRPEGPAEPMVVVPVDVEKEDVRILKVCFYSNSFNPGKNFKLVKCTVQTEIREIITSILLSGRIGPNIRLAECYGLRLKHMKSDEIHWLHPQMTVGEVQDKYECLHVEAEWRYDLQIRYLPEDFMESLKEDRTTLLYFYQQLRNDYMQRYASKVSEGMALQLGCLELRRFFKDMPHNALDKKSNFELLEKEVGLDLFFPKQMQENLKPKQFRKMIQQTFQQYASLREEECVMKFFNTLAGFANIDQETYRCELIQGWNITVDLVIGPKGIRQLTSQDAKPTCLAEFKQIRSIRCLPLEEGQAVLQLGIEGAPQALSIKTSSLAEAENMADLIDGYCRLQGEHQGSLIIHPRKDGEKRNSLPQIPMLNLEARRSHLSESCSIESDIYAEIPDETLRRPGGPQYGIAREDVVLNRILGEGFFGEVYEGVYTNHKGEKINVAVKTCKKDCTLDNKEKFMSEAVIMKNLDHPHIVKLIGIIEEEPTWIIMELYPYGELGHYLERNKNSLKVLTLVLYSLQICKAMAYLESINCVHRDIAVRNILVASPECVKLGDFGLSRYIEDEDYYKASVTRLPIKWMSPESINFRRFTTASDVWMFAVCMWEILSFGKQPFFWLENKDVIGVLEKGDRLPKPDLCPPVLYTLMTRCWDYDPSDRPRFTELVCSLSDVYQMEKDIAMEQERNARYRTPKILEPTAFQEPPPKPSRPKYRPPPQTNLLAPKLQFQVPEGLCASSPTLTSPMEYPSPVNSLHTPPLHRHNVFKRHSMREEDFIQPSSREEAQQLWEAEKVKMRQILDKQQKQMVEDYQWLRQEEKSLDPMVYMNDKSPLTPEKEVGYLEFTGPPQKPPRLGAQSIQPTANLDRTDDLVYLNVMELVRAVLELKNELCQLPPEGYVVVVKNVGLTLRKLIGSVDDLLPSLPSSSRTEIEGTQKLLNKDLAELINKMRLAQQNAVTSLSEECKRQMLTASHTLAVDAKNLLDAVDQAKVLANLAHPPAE
T2 sequence (Q05397 whole entry): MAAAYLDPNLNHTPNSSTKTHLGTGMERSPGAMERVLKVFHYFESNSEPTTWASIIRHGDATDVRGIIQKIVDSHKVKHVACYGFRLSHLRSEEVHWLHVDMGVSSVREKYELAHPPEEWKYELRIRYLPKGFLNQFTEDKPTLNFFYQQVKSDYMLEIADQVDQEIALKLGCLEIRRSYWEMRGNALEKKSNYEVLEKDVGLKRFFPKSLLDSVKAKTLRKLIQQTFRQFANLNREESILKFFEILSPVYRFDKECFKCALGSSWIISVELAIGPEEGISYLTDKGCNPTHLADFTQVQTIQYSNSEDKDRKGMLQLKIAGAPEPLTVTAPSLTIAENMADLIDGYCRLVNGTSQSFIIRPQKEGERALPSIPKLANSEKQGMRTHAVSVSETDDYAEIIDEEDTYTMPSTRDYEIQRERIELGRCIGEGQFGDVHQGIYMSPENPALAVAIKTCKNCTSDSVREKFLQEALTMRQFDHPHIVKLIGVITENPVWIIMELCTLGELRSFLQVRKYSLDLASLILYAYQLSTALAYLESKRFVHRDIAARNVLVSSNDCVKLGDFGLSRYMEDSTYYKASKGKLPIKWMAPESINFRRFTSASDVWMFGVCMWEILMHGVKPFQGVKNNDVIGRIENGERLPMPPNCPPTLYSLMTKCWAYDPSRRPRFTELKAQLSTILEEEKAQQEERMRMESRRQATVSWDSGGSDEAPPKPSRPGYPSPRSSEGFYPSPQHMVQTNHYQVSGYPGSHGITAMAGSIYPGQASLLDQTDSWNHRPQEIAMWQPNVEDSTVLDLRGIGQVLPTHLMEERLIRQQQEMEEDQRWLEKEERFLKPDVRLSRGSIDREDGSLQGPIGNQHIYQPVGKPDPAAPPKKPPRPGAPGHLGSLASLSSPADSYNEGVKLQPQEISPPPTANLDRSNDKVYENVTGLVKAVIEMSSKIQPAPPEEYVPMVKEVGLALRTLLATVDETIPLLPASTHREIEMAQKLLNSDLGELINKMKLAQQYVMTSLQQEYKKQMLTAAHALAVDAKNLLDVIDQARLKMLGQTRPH
T3 sequence (Q05397 whole entry): as above
T4 sequence (Q05397 whole entry): as above

SMILES | IC50 [1] | IC50 [2] | IC50 [3] | formation of MDA-MB-231 colonies [4] | IC50 [5] | IC50 [6] | IC50 [7] | IC50 [8] | serum-stimulated migration of MDA-MB-231 cells [9] | TNBC cell invasion (3D) [10] | invasion of MDA-MB-231 cells [11] | tumor growth inhibition (in words) ([12]; 20 mg/kg) | TGI ([12]; 20 mg/kg po QD) | TGI ([12]; 80 mg/kg po QD) | tumor weight ([12]; 80 mg/kg, day 21) | IC50 [13] | tumor growth inhibition (in words) ([12]; 80 mg/kg)
CNC(=O)c1cccc(C)c1Nc1nc(Nc2ccc(N3CCN(C4C5CC6CC4CC(O)(C6)C5)CC3)cc2OC)ncc1C(F)(F)F (stereo not shown) [SJP1602, 2-((2-((4-(4-((2s,5r)-5-hydroxyadamantan-2-yl)piperazin-1-yl)-2-methoxyphenyl)amino)-5-(trifluoromethyl)pyrimidin-4-yl)amino)-N,3-dimethylbenzamide] | 0.0247 ± 0.000919 µM | 0.083 ± 0.017 µM | > 10 µM | dose-dependent decrease | 9.62 µM | 0.043 ± 0.016 µM | > 10 µM | 0.02 ± 0.007 µM | considerably reduced | significantly inhibits | markedly inhibited | pronounced inhibition of cancer growth | 76.0% | 77.5% | did not statistically significantly decrease | > 10 µM | 
CONC(=O)c1ccccc1Nc1cc(Nc2cc(C)nn2C(C)C)ncc1Cl [GSK2256098] |  |  |  |  |  |  |  |  | did not affect |  |  |  |  |  |  |  | 
CNC(=O)c1ccc(Nc2ncc(C(F)(F)F)c(NCc3nccnc3N(C)S(C)(=O)=O)n2)cc1 [VS-6063, Defactinib] |  |  |  |  |  |  |  |  |  |  |  |  |  | 10.1% |  |  | ineffective
